Test results from patent US9169315B2, “Heparin cofactor II fragments with anti-inflammatory and anti-coagulant activity” (XIMMUNE AB, priority 2009, dated 2015).
Read-outs that look alike come from different tables or passages of the source. No end group written: not given here.

What was measured:
human blood = details: corresponding number for LL-37 (Malmsten et al., in manuscript); cited from earlier work
P. aeruginosa = assay type: cell-based, Pseudomonas aeruginosa
Description: (§1) MIC assay was carried out by a microtiter broth dilution method as previously described in the NCSLA guidelines (Wiegand, I., Hilpert, K. & Hancock, R. E. Agar and broth dilution methods to determine the minimal inhibitory concentration (MIC) of antimicrobial substances. Nat Protoc 3, 163-175 (2008)). In brief, fresh overnight colonies were suspended to a turbidity of 0.5 units and further diluted in Mueller-Hinton broth (Becton Dickinson). For determination of MIC, peptides were dissolved in water at concentration 10 times higher than the required range by serial dilutions from a stock solution. Ten μl of each concentration was added to each corresponding well of a 96-well microtiter plate (polypropylene, Costar Corp.) and 90 μl of bacteria (1×10^5) in MH medium added. The plate was incubated at 37° C. for 16-18 h. MIC was taken as the lowest concentration where no visual growth of bacteria was detected.

S. pneumoniae = assay type: cell-based
Description: as §1

S. pyogenes = assay type: cell-based; details: S. pyogenes AP1
Description: as §1

E. coli = assay type: cell-based, Escherichia coli
Description: as §1

S. aureus = assay type: cell-based, Staphylococcus aureus
Description: as §1

E. faecalis = assay: MIC, microtiter broth dilution; assay type: cell-based; details: E. faecalis Clinical isolate 2374
Description: as §1

CC[C@H](C)[C@H](NC(=O)[C@H](CCCCN)NC(=O)[C@H](CCC(=O)O)NC(=O)[C@H](CCCCN)NC(=O)[C@H](CO)NC(=O)[C@H](CCCCN)NC(=O)[C@H](CCCNC(=N)N)NC(=O)[C@H](Cc1ccccc1)NC(=O)[C@H](Cc1ccccc1)NC(=O)[C@H](CC(=O)O)NC(=O)CNC(=O)[C@H](CC(C)C)NC(=O)[C@@H](N)CC(C)C)C(=O)NCC(=O)N[C@@H](CCCCN)C(=O)N[C@@H](CCC(=O)O)C(=O)N[C@@H](Cc1ccccc1)C(=O)N[C@@H](CCCCN)C(=O)N[C@@H](CCCNC(=N)N)C(=O)N[C@H](C(=O)N[C@H](C(=O)N[C@@H](CCC(N)=O)C(=O)N[C@@H](CCCNC(=N)N)C(=O)N[C@H](C(=O)N[C@@H](CCCCN)C(=O)N[C@@H](CC(=O)O)C(=O)N[C@@H](Cc1ccccc1)C(=O)N[C@@H](CC(C)C)C(=O)N[C@@H](CCCNC(=N)N)C(=O)N[C@@H](CC(N)=O)C(=O)N[C@@H](CC(C)C)C(=O)N[C@H](C(=O)N1CCC[C@H]1C(=O)N[C@@H](CCCNC(=N)N)C(=O)N[C@H](C(=O)N[C@@H](CCC(=O)O)C(=O)N[C@@H](CO)C(=O)O)[C@@H](C)O)C(C)C)[C@@H](C)CC)C(C)C)[C@@H](C)CC [LL-37]
Accompanying hemolysis in infected human blood (human blood): ~8%

ILRWPWWPWRRK-NH2 [Omiganan, reference compound]
MIC (P. aeruginosa; P. aeruginosa ATCC 27853): 160 µM
MIC (P. aeruginosa; P. aeruginosa Clinical isolate 10.5): 40 µM
MIC (P. aeruginosa; P. aeruginosa Clinical isolate 13.2): 40 µM
MIC (P. aeruginosa; P. aeruginosa Clinical isolate 23.1): 40 µM
MIC (P. aeruginosa; P. aeruginosa Clinical isolate 27.1): > 160 µM
MIC (P. aeruginosa; P. aeruginosa Clinical isolate 51.1): 80 µM
MIC (P. aeruginosa; P. aeruginosa Clinical isolate 62.1): 20 µM
MIC (P. aeruginosa; P. aeruginosa Clinical isolate 15159): 20 µM
MIC (P. aeruginosa; P. aeruginosa Clinical isolate 18488): 20 µM
MIC (S. pneumoniae; S. pneumoniae Clinical isolate I-95): 1.25 µM
MIC (S. pneumoniae; S. pneumoniae Clinical isolate I-104): 160 µM
MIC (S. pneumoniae; S. pneumoniae Clinical isolate PJ1354): 10 µM
MIC (S. pneumoniae; S. pneumoniae D39): 5 µM
MIC (S. pneumoniae; S. pneumoniae TIGR4): 2.5 µM
MIC (S. pyogenes): 5 µM
MIC (E. coli): 20 µM
MIC (E. coli; E. coli Clinical isolate 47.1): 20 µM
MIC (E. coli; E. coli Clinical isolate 49.1): 10 µM
MIC (S. aureus; S. aureus ATCC 29213): 10 µM
MIC (S. aureus; S. aureus Clinical isolate 1086): 10 µM
MIC (S. aureus; S. aureus Clinical isolate 1088): 20 µM
MIC (S. aureus; S. aureus Clinical isolate 1090): 80 µM
MIC (S. aureus; S. aureus Clinical isolate 14312): 20 µM
MIC (S. aureus; S. aureus Clinical isolate 16065): 5 µM
MIC (E. faecalis): 160 µM
